# From patent US8747873B2, “Compositions of dibromomalonamide and their use as biocides” (Dow Global Technologies LLC, priority 2012, dated 2014)
# Where two headings read alike, the source gives them in different places.
# Assays:
# [1] = test system: mixture of Pseudomonas aeruginosa, Klebsiella pneumoniae, Staphylococcus aureus, and Bacillus subtilis; test: Growth inhibition assay; assay type: cell-based; details: for % Inhibition of growth by CTAC: Table 3, single active
# From the text: The growth inhibition assay used in the Examples measures inhibition of growth (or lack thereof) of a microbial consortium. Inhibition of growth can be the result of killing of the cells (so no growth occurs), killing of a significant portion of the populations of cells so that regrowth requires a prolonged time, or inhibition of growth without killing (stasis). Regardless of the mechanism of action, the impact of a biocide (or combination of biocides) can be measured over time on the basis of an increase in the size of the community.
# The assay measures the efficacy of one or more biocides at preventing growth of a consortium of bacteria in a dilute mineral salts medium. The medium contains (in mg/l) the following components: FeCl3.6H2O (1); CaCl2.2H2O (10); MgSO4.7H2O (22.5); (NH4)2SO4 (40); KH2PO4 (10); K2HPO4 (25.5); Yeast Extract (10); and glucose (100). After all components are added to deionized water, the pH of the medium is adjusted to 7.5. Following filter sterilization, aliquots are dispensed in 100 ul quantities to sterile microtiter plate wells. Dilutions of DBMAL and/or “Biocide B” are then added to the microtiter plate. After preparing the combinations of actives as illustrated below, each well is inoculated with 100 μl of a cell suspension containing ca. 1×10^6 cells per milliliter of a mixture of Pseudomonas aeruginosa, Klebsiella pneumoniae, Staphylococcus aureus, and Bacillus subtilis. The final total volume of medium in each well is 300 μl. […] The resulting matrix allows testing of eight concentrations of each active and 64 combinations of actives in the ratios (of actives).
# Controls (not shown) contain the medium with no biocide added. After preparing the combinations of actives as illustrated above, each well is inoculated with 100 μl of a cell suspension containing ca. 1×10^6 cells per milliliter of a mixture of Pseudomonas aeruginosa, Klebsiella pneumoniae, Staphylococcus aureus, and Bacillus subtilis. The final total volume of medium in each well is 300 μl.
# Immediately after the microtiter plates are prepared, the optical density (OD) readings for each well is measured at 580 nm and the plates are then incubated at 37° C. for 24 hr. After the incubation period, the plates are gently agitated before OD580 values are collected. The OD580 values at T0 are subtracted from T24 values to determine the total amount of growth (or lack thereof) that occurs. These values are used to calculate the percent inhibition of growth caused by the presence of each biocide and each of the 64 combinations. A 90% inhibition of growth is used as a threshold for calculating synergy index (SI) values with the following equation: Synergy Index=MDBMAL/CDBMAL+MB/CB
# where • CDBMAL: Concentration of DBMAL required to inhibit ˜90% of bacterial growth when used alone • CB: Concentration of biocide (B) required to inhibit ˜90% of bacterial growth when used alone. • MDBMAL: Concentration of DBMAL required to inhibit ˜90% of bacterial growth when used in combination with biocide (B). • MB: Concentration of biocide (B) required to inhibit ˜90% of bacterial growth when used in combination with DBMAL The SI values are interpreted as follows: • SI<1: Synergistic combination • SI=1: Additive combination • SI>1: Antagonistic combination
# [2] = test system: mixture of Pseudomonas aeruginosa ATCC 10145 and Staphylococcus aureus ATCC 6538; test: Kill assay (MBC, synergy index); assay type: cell-based; details: 37° C., 2 hours
# Description: This assay is used as a preliminary evaluation of synergy between the actives. The procedure is as follows. A mineral salts solution (0.2203 g of CaCl2, 0.1847 g of MgSO4, and 0.2033 g of NaHCO3 in 1 L water, approximately pH 8) is inoculated with equal amounts (about 10^7 CFU/ml) of a mixture of Pseudomonas aeruginosa ATCC 10145 and Staphylococcus aureus ATCC 6538. Aliquots of the cell suspension are then treated with 2,2-dibromomalonamide (“DBMAL”), […], and their combinations at various concentration levels. […] The MBC values are then used to calculate a synergy index (SI) values.
# Summaries of the kill assay results are presented in the individual Examples. In each table, MBC values for each biocide and the blends tested are presented Likewise, the Synergy Index (“SI”) values for the combinations are listed. SI is calculated with the following equation: Synergy Index=Ca/CA+Mb/CB […]
compound,measurement,setting,value
"O=[N+]([O-])C(CO)(CO)CO [TN, tris(hydroxymethyl)nitromethane]",inhibition at 7.81 µg/mL,"[1]; 24 h, TN alone 7.81 mg/l, read-out: % Inhibition of growth by TN",0%
same,inhibition at 15.63 µg/mL,"[1]; 24 h, TN alone 15.63 mg/l, read-out: % Inhibition of growth by TN",4%
same,inhibition at 31.25 µg/mL,"[1]; 24 h, TN alone 31.25 mg/l, read-out: % Inhibition of growth by TN",0%
same,inhibition at 62.5 µg/mL,"[1]; 24 h, TN alone 62.5 mg/l, read-out: % Inhibition of growth by TN",50%
same,inhibition at 125 µg/mL,"[1]; 24 h, TN alone 125.0 mg/l, read-out: % Inhibition of growth by TN",100%
same,inhibition at 250 µg/mL,"[1]; 24 h, TN alone 250.0 mg/l, read-out: % Inhibition of growth by TN",100%
same,inhibition at 500 µg/mL,"[1]; 24 h, TN alone 500.0 mg/l, read-out: % Inhibition of growth by TN",100%
same,inhibition at 1000 µg/mL,"[1]; 24 h, TN alone 1000.0 mg/l, read-out: % Inhibition of growth by TN",100%
"CC1(C)COCN1 [4,4-D, 4,4-Dimethyloxazolidine]",inhibition at 7.81 µg/mL,"[1]; 24 h, 4,4-D alone 7.81 mg/l, read-out: % Inhibition of growth by 4,4-D",0%
same,inhibition at 15.63 µg/mL,"[1]; 24 h, 4,4-D alone 15.63 mg/l, read-out: % Inhibition of growth by 4,4-D",2%
same,inhibition at 31.25 µg/mL,"[1]; 24 h, 4,4-D alone 31.25 mg/l, read-out: % Inhibition of growth by 4,4-D",13%
same,inhibition at 62.5 µg/mL,"[1]; 24 h, 4,4-D alone 62.5 mg/l, read-out: % Inhibition of growth by 4,4-D",98%
same,inhibition at 125 µg/mL,"[1]; 24 h, 4,4-D alone 125.0 mg/l, read-out: % Inhibition of growth by 4,4-D",100%
same,inhibition at 250 µg/mL,"[1]; 24 h, 4,4-D alone 250.0 mg/l, read-out: % Inhibition of growth by 4,4-D",99%
same,inhibition at 500 µg/mL,"[1]; 24 h, 4,4-D alone 500.0 mg/l, read-out: % Inhibition of growth by 4,4-D",100%
same,inhibition at 1000 µg/mL,"[1]; 24 h, 4,4-D alone 1000.0 mg/l, read-out: % Inhibition of growth by 4,4-D",100%
"O=CCCCC=O [Glut, glutaraldehyde]",concentration needed to provide at least 90% inhibition of growth,"[1]; biocide alone, 24 h",125 mg/L
same,"MBC (minimum biocide concentration needed to completely kill), biocide alone",[2],29.6 µg/mL
"CCN1CN(CC)CN(CC)C1 [TEHT, 1,3,5-Triethylhexahydro-s-triazine]",inhibition at 0.19 µg/mL,"[1]; 24 h, TEHT alone 0.19 mg/l, read-out: % Inhibition of growth by TEHT",10%
same,inhibition at 0.39 µg/mL,"[1]; 24 h, TEHT alone 0.39 mg/l, read-out: % Inhibition of growth by TEHT",11%
same,inhibition at 0.78 µg/mL,"[1]; 24 h, TEHT alone 0.78 mg/l, read-out: % Inhibition of growth by TEHT",10%
same,inhibition at 1.56 µg/mL,"[1]; 24 h, TEHT alone 1.56 mg/l, read-out: % Inhibition of growth by TEHT",22%
same,inhibition at 3.13 µg/mL,"[1]; 24 h, TEHT alone 3.13 mg/l, read-out: % Inhibition of growth by TEHT",49%
same,inhibition at 6.25 µg/mL,"[1]; 24 h, TEHT alone 6.25 mg/l, read-out: % Inhibition of growth by TEHT",82%
same,inhibition at 12.5 µg/mL,"[1]; 24 h, TEHT alone 12.5 mg/l, read-out: % Inhibition of growth by TEHT",98%
same,inhibition at 25 µg/mL,"[1]; 24 h, TEHT alone 25.0 mg/l, read-out: % Inhibition of growth by TEHT",100%
"CCC12COCN1COC2 [EBO, 7-ethyl bicyclooxazolidine]",% Inhibition of growth by EBO,"[1]; EBO alone 7.81 mg/l, 24 h",0%
same,% Inhibition of growth by EBO,"[1]; EBO alone 15.63 mg/l, 24 h",0%
same,% Inhibition of growth by EBO,"[1]; EBO alone 31.25 mg/l, 24 h",0%
same,% Inhibition of growth by EBO,"[1]; EBO alone 62.5 mg/l, 24 h",3%
same,% Inhibition of growth by EBO,"[1]; EBO alone 125.0 mg/l, 24 h",10%
same,% Inhibition of growth by EBO,"[1]; EBO alone 250.0 mg/l, 24 h",71%
same,% Inhibition of growth by EBO,"[1]; EBO alone 500.0 mg/l, 24 h",96%
same,% Inhibition of growth by EBO,"[1]; EBO alone 1000.0 mg/l, 24 h",100%
"1-(3-chloroallyl)-3,5,7-triaza-1-azoniaadamantane chloride [CTAC]",% Inhibition of growth by CTAC,"[1]; CTAC Concn. 3.91 mg/l, 24 h",0%
same,% Inhibition of growth by CTAC,"[1]; CTAC Concn. 7.81 mg/l, 24 h",18%
same,% Inhibition of growth by CTAC,"[1]; CTAC Concn. 15.63 mg/l, 24 h",20%
same,% Inhibition of growth by CTAC,"[1]; CTAC Concn. 31.25 mg/l, 24 h",21%
same,% Inhibition of growth by CTAC,"[1]; CTAC Concn. 62.5 mg/l, 24 h",0%
same,% Inhibition of growth by CTAC,"[1]; CTAC Concn. 125.0 mg/l, 24 h",100%
same,% Inhibition of growth by CTAC,"[1]; CTAC Concn. 250.0 mg/l, 24 h",100%
same,% Inhibition of growth by CTAC,"[1]; CTAC Concn. 500.0 mg/l, 24 h",100%
"ClC=CC[N+]12CN3CN(CN(C3)C1)C2 [CTAC, 1-(3-chloroallyl)-3,5,7-triaza-1-azoniaadamantane chloride]",inhibition at 1.95 µg/mL,"[1]; 24 h, Table 6, CTAC alone 1.95 mg/l",0%
same,inhibition at 3.91 µg/mL,"[1]; 24 h, Table 6, CTAC alone 3.91 mg/l",0%
same,inhibition at 7.81 µg/mL,"[1]; 24 h, Table 6, CTAC alone 7.81 mg/l, read-out: % Inhibition of growth by CTAC",9%
same,inhibition at 15.625 µg/mL,"[1]; 24 h, Table 6, CTAC alone 15.625 mg/l",0%
same,inhibition at 31.25 µg/mL,"[1]; 24 h, Table 6, CTAC alone 31.25 mg/l, read-out: % Inhibition of growth by CTAC",35%
same,inhibition at 62.5 µg/mL,"[1]; 24 h, Table 6, CTAC alone 62.5 mg/l, read-out: % Inhibition of growth by CTAC",41%
same,inhibition at 125 µg/mL,"[1]; 24 h, Table 6, CTAC alone 125.0 mg/l, read-out: % Inhibition of growth by CTAC",100%
same,inhibition at 250 µg/mL,"[1]; 24 h, Table 6, CTAC alone 250.0 mg/l, read-out: % Inhibition of growth by CTAC",98%
